Literature values, collected in patent publication US20170281701A1, “Formulation for the Nebulization of Oil Based Substances Suitable for Use with a Vibrating Mesh Nebulizer” (priority 2016, published 2017).

Assays:
[1] = compared with Δ8-THC
[2] = smoked cannabis cigarette, of total available amount
[3] = not given; remark: listed apart in the source
[4] = oral dose of 20 mg in a chocolate cookie

| SMILES | permeability through the skin relative to Δ8-THC [1] | absorption through the rectal route | other results |
| --- | --- | --- | --- |
| CCCCCc1cc(O)c2c(c1)OC(C)(C)c1ccc(C)cc1-2 [CBN, cannabinol] | 10 fold | – | – |
| CCCCCc1cc(O)c2c(c1)OC(C)(C)[C@@H]1CCC(C)=C[C@@H]21 [Δ^9-THC, Δ-9-tetrahydrocannabinol] | – | not absorbed | maximum of THC content in a cannabis cigarette absorbed or delivered to the systemic circulation [2]: 25-27%; absorption (description) [3, 4]: slow and unreliable; systemic availability [3, 4]: 4-12% |
| CCCCCc1cc(OC(=O)CCC(=O)O)c2c(c1)OC(C)(C)[C@@H]1CCC(C)=C[C@@H]21 [Δ^9-THC-hemisuccinate] | – | is absorbed | – |
| C=C(C)[C@@H]1CCC(C)=C[C@H]1c1c(O)cc(CCCCC)cc1O [CBD, cannabidiol] | 10 fold | – | – |
| CCCCCc1cc(O)c2c(c1)OC(C)(C)[C@@H]1CCC(C)=C[C@@H]21 [dronabinol] | – | – | administered dose entering the systemic circulation ([3]; orally administered, extensive first-pass metabolism): 10-20% |
